According to ChEMBL document CHEMBL1255550, “Natural product derivatives with bactericidal activity against Gram-positive pathogens including methicillin-resistant Staphylococcus aureus and vancomycin-resistant Enterococcus faecalis” (2010):
Converted amounts (≈) assume the structure as drawn.

Experiments:
Assay type in all cases: functional
Bacillus subtilis [1] = experiment: Antibacterial activity against Bacillus subtilis
Staphylococcus aureus [2] = experiment: Antibacterial activity against Staphylococcus aureus
Bacillus anthracis = experiment: Antibacterial activity against Bacillus anthracis
Staphylococcus aureus [3] = experiment: Antibacterial activity against methicillin-resistant Staphylococcus aureus
Enterococcus faecalis = experiment: Antibacterial activity against vancomycin-resistant Enterococcus faecalis
Bacillus subtilis [4] = experiment: Antibacterial activity against Bacillus subtilis assessed as reduction of bacterial viability at 2 times MIC after 30mins

What does the source list for `C[C@H](C[C@H]1CC[C@@H]([C@H](C)Cn2cc(-c3ccccn3)nn2)O1)OC(=O)c1ccccc1`?
MIC (Bacillus subtilis [1]): 20 µg/mL (≈ 47.6 µM); MIC (Staphylococcus aureus [2]): 320 µg/mL (≈ 761 µM); MIC (Bacillus anthracis): 320 µg/mL (≈ 761 µM); MIC (Staphylococcus aureus [3]): 210 µg/mL (≈ 499 µM); MIC (Enterococcus faecalis): 26 µg/mL (≈ 61.8 µM)

What does the source list for `COC(=O)CCC(=O)O[C@H](C)C[C@H]1CC[C@@H]([C@H](C)Cn2cc(-c3cccc(NC(C)=O)c3)nn2)O1`?
MIC (Bacillus subtilis [1]): 91 µg/mL (≈ 187 µM); MIC (Staphylococcus aureus [2]): 370 µg/mL (≈ 760 µM); log10cfu (Bacillus subtilis [4]): >3; MIC (Bacillus anthracis): 180 µg/mL (≈ 370 µM); MIC (Staphylococcus aureus [3]): 122 µg/mL (≈ 251 µM); MIC (Enterococcus faecalis): 61 µg/mL (≈ 125 µM)

For `CC(CC1CCC(C(C)Cn2cc(-c3ccccn3)nn2)O1)OC(=O)c1ccccc1` (racemic), which MIC (Bacillus subtilis [1]) is on record?
Its MIC is 40 µg/mL (≈ 95.1 µM).

And the MIC (Staphylococcus aureus [2])?
The MIC was 630 µg/mL (≈ 1500 µM).

And the MIC (Bacillus anthracis)?
The MIC was 630 µg/mL (≈ 1500 µM).

For `Br.COC(=O)CCC(=O)OC(C)CC1CCC(C(C)Cn2cc(-c3cccc(NC(C)=O)c3)nn2)O1` (racemic), which MIC (Bacillus subtilis [1]) is on record?
Its MIC is 180 µg/mL.

And the MIC (Staphylococcus aureus [2])?
The MIC was 370 µg/mL.

And the MIC (Bacillus anthracis)?
Its MIC is 370 µg/mL.

With `COC(=O)CCC(=O)O[C@@H](C)C[C@@H]1CC[C@H]([C@@H](C)Cn2cc(-c3cccc(NC(C)=O)c3)nn2)O1` (single isomer, unassigned) as the compound, how does the MIC (Bacillus subtilis [1]) read?
The MIC was greater than 730 µg/mL.

What about the MIC (Staphylococcus aureus [2]) of the same compound?
Its MIC is greater than 730 µg/mL.

And the MIC (Bacillus anthracis)?
The MIC was greater than 730 µg/mL.

What about the MIC (Enterococcus faecalis) of the same compound?
The MIC was greater than 730 µg/mL.

With `C[C@@H](C[C@@H]1CC[C@H]([C@@H](C)Cn2cc(-c3ccccn3)nn2)O1)OC(=O)c1ccccc1` (single isomer, unassigned) as the compound, how does the MIC (Bacillus subtilis [1]) read?
Its MIC is greater than 630 µg/mL.

And the MIC (Staphylococcus aureus [2])?
Its MIC is greater than 630 µg/mL.

What about the MIC (Bacillus anthracis) of the same compound?
Its MIC is greater than 630 µg/mL.

What about the MIC (Enterococcus faecalis) of the same compound?
Its MIC is greater than 630 µg/mL.
